Data published in US20190350898A1, “METHODS AND COMPOSITIONS FOR TREATMENT OF ALZHEIMER'S DISEASE” (Neurotrope Bioscience, Inc., priority 2018, published 2019).
Entries after “also recorded” stand apart in the source; their conditions may differ.

Test system: patients with advanced Alzheimer's disease
Assay: Severe Impairment Battery (SIB) change from baseline, double-blind randomized placebo-controlled trial
Format: in vivo, human
Conditions: for Mean slope of SIB over time, Unweight Slope / Mean slope of SIB over time, Weighted Slope: 20 μg Bryostatin; for Mean slope of SIB over time, Unweight Slope: baseline to week 15; for Mean slope of SIB over time, Weighted Slope: weighted by number of non-zero SIB scores; for SIB Total change from baseline, LS Mean (SE) / SIB Total, Difference vs. Placebo / SIB Total change from baseline, LS Mean: Bryostatin 20 μg
Procedure: In a double-blind, randomized, placebo-controlled trial, bryostatin was administered by intravenous infusion (˜45 minutes) to patients with advanced Alzheimer's disease for 12 weeks at doses of 20 or 40 μg. Randomization was stratified at baseline by severe (MMSE-2, 4-9) and moderate (MMSE-2, 10-15) dementia, wherein MMSE-2 refers to Mini-Mental State Examination, version 2. The MMSE or Folstein test is a 30-point questionnaire that is used extensively in clinical and research settings to measure cognitive impairment. Low scores indicate greater impairment. Version 2 of the MMSE was published in 2010, expanding the original questionnaire's usefulness in populations with milder forms of cognitive impairment. […] Importantly, this cognitive improvement persisted and increased 30 days after all bryostatin dosing had been completed.
Adults aged 55-85 with cognitive deficits present for at least 2 years, MMSE-2 of 4-15, inclusive, and a diagnosis of Alzheimer's dementia were randomly assigned to receive blinded intravenous infusions of bryostatin 24 μg or matching placebo at weeks 0 and 1. The 24 μg and 48 μg doses during the first two weeks of the 20 and 40 μg protocols respectively were considered to be “loading” doses thought to be beneficial from prior experience with Compassionate Use trial patients. Nelson et al., Alzheimers Dis. 2017 58: 521-535. In one arm, the two 24 μg doses were followed by 20 μg doses at weeks 5, 7, 9 and 11 with the Severe Impairment Battery (SIB) measured at baseline and weeks 5, 9, 13, and 15. In a second arm, the two 48 μg doses at weeks 0 and 1 were followed by 40 μg doses at weeks 5, 7, 9, and 11 with the SIB measured at baseline and weeks 5, 9, 13, and 15. The subjects were stratified by MMSE-2 in two strata: Stratum 1 (4-9) and Stratum 2 (10-15). The first primary endpoint was safety and tolerability, assessed by treatment emergent adverse events (TEAEs) with a sample size of 150 subjects randomized 1:1:1. Although efficacy was the secondary measure, the primary efficacy endpoint was SIB improvement at week 13 evaluated using a mixed model for repeated measures. A secondary efficacy endpoint was ADCS-ADL Sev. The primary safety population included all subjects who received at least 1 dose of study drug, and efficacy was evaluated in a modified intent to treat (mITT) population that received at least 1 dose of study drug and had at least one treatment evaluation. Efficacy was evaluated both as a primary end-point in the modified intent-to-treat (mITT) population and also as a primary end point in a Completers population that included all patients that completed the entire protocols as described above.
The SIB efficacy measurement at 30 days (week 15) post dosing—after all dosing had been completed (last dose administered at week 11)—was a pre-specified exploratory endpoint. Week 15 results were only included for subjects who were not re-randomized. The mixed model assumes missing at random, but order of enrollment in the trial was not random. Since order of enrollment was not random, the assumption of missing at random is not met. For this reason, only including week 15 for those who were not re-randomized is an appropriate way to estimate week 15 results, but not an appropriate way to estimate results at the earlier visits. For this reason, estimates up through week 13 are from a mixed model that only included data through week 13 and the week 15 estimates are from a separate model. Results were generated using a mixed model with repeated measures predicting change from baseline in SIB Total Score as the response variable and using baseline score, baseline MMSE strata, treatment, visit (categorical), and visit (treatment) as predictors. […]

[1] = Week 5, Completer, With Memantine
[2] = Week 5, Completer, Without Memantine
[3] = Week 9, Completer, With Memantine
[4] = Week 9, Completer, Without Memantine
[5] = Week 13, Completer, With Memantine
[6] = Week 13, Completer, Without Memantine
[7] = Week 13, FAS (mITT), With Memantine

SMILES: CCC/C=C/C=C/C(=O)O[C@H]1/C(=C/C(=O)OC)C[C@H]2C[C@H]([C@@H](C)O)OC(=O)C[C@H](O)C[C@@H]3C[C@H](OC(C)=O)C(C)(C)[C@](O)(C[C@@H]4C/C(=C/C(=O)OC)C[C@H](/C=C/C(C)(C)[C@]1(O)O2)O4)O3 [Bryostatin, bryostatin-1]
- Mean slope of SIB over time, Unweight Slope (first column group (strata head not given, probably memantine naïve)): 0.382
- Mean slope of SIB over time, Unweight Slope (second column group (strata head not given, probably memantine exposed)): −0.143
- Mean slope of SIB over time, Weighted Slope (first column group (probably memantine naïve)): 0.363
- Mean slope of SIB over time, Weighted Slope (second column group (probably memantine exposed)): −0.099
- SIB improvement at week 5 compared to placebo and baseline (20 μg arm, week 5, after 3 doses): significant improvement
- SIB improvement compared to placebo (20 μg dose, patients on memantine background therapy): no SIB improvement; also recorded: did not occur
- SIB improvement versus baseline and placebo (20 μg dose, throughout the 13-week trial): sustained improvements in SIB scores; also recorded: sustained efficacy; also recorded: sustained improvement in SIB
- SIB improvement versus baseline and placebo (40 μg dose): lack of efficacy; also recorded: no SIB improvement
- SIB Total change from baseline, LS Mean (SE) (Week 5, Completer, MMRM): 1.67 (0.964)
- SIB Total, Difference vs. Placebo (Week 5, Completer, MMRM): 4.00
- SIB Total change from baseline, LS Mean [1]: 0.61
- SIB Total, Difference vs. Placebo [1]: 2.94
- SIB Total change from baseline, LS Mean [2]: 3.22
- SIB Total, Difference vs. Placebo [2]: 5.38
- SIB Total change from baseline, LS Mean (SE) (Week 5, FAS, MMRM): 1.18 (1.102)
- SIB Total, Difference vs. Placebo (Week 5, FAS, MMRM): 2.96
- SIB Total change from baseline, LS Mean (Week 5, FAS, With Memantine): 0.26
- SIB Total, Difference vs. Placebo (Week 5, FAS, With Memantine): 1.96
- SIB Total change from baseline, LS Mean (Week 5, FAS, Without Memantine): 2.74
- SIB Total, Difference vs. Placebo (Week 5, FAS, Without Memantine): 4.48
- SIB Total change from baseline, LS Mean (SE) (Week 9, Completer, MMRM): 1.28 (1.119)
- SIB Total, Difference vs. Placebo (Week 9, Completer, MMRM): 1.85
- SIB Total change from baseline, LS Mean [3]: −0.16
- SIB Total, Difference vs. Placebo [3]: 0.90
- SIB Total change from baseline, LS Mean [4]: 3.34
- SIB Total, Difference vs. Placebo [4]: 2.66
- SIB Total change from baseline, LS Mean (SE) (Week 9, FAS, MMRM): 0.94 (1.149)
- SIB Total, Difference vs. Placebo (Week 9, FAS, MMRM): 1.03
- SIB Total change from baseline, LS Mean (Week 9, FAS, With Memantine): −0.33
- SIB Total, Difference vs. Placebo (Week 9, FAS, With Memantine): 0.09
- SIB Total change from baseline, LS Mean (Week 9, FAS, Without Memantine): 2.95
- SIB Total, Difference vs. Placebo (Week 9, FAS, Without Memantine): 2.08
- SIB Total change from baseline, LS Mean (SE) (Week 13, Completer, MMRM): 1.51 (1.118)
- SIB Total, Difference vs. Placebo (Week 13, Completer, MMRM): 2.63
- SIB Total, Difference vs. Placebo (Week 13, Completer, MMRM, listed as bryostatin): 2.6
- SIB Total change from baseline, LS Mean [5]: −0.39
- SIB Total, Difference vs. Placebo [5]: 0.56
- SIB Total change from baseline, LS Mean [6]: 4.22
- SIB Total, Difference vs. Placebo [6]: 5.53
- SIB Total change from baseline, LS Mean [7]: −0.60
- SIB Total, Difference vs. Placebo [7]: −0.14
- SIB Total change from baseline, LS Mean (Week 13, FAS (mITT), Without Memantine): 3.83 points
